Source: US8679514B2, “Fungicidal mixtures based on azolopyrimidinylamines” (BASF SE, priority 2005, dated 2014)

Legend:
[1] = tested on: Phytophthora infestans; assay: whole plant or invertebrate; type: in vivo; details: 144 h, read-out: Efficacy in % of the untreated control
[2] = tested on: Phytophthora infestans; assay: microbe, parasite or virus in culture; type: cell-based
[3] = tested on: Pyricularia oryzae; assay: microbe, parasite or virus in culture; type: cell-based; details: for inhibition at 63 µg/mL / inhibition at 0.25 µg/mL / inhibition at 1 µg/mL / inhibition at 4 µg/mL / inhibition at 16 µg/mL: Pyricularia oryzae, read-out: Observed activity (%)
[4] = tested on: Botrytis cinerea; assay: Activity against the gray mold pathogen Botrytis cinerea in the microtiter test; type: cell-based; details: single active compound; for inhibition at 0.25 µg/mL: Conc. 0.25 mg/l; for inhibition at […]: Conc. 0.063 mg/l; for inhibition at 1 µg/mL: Conc. 1 mg/l; for inhibition at 4 µg/mL: Conc. 4 mg/l
[5] = Phytophthora infestans, read-out: Observed activity (%)
[6] = Botrytis cinerea, read-out: Observed activity (%)

COCC(=O)N(c1c(C)cccc1C)C(C)C(=O)OC (racemic) [metalaxyl, methyl N-(methoxyacetyl)-N-(2,6-xylyl)-DL-alaninate, reference compound]
pest or weed control at 16 ppm [1]: 33%
pest or weed control at 63 ppm [1]: 56%
inhibition at 1 µg/mL [2, 5]: 6%
inhibition at 4 µg/mL [2, 5]: 9%
inhibition at 63 µg/mL [3]: 2%

Cc1nc2ncnn2c(N)c1-c1ccc(Cl)c(Cl)c1 [Compound I-9, 6-(3,4-dichlorophenyl)-5-methyl-[1,2,4]triazolo[1,5-a]pyrimidin-7-ylamine]
inhibition at 0.016 µg/mL [2, 5]: 1%
inhibition at 0.25 µg/mL [2, 5]: 7%
inhibition at […] [2, 5]: 6%
inhibition at 0.25 µg/mL [4, 6]: 8%
inhibition at 0.25 µg/mL [3]: 7%
inhibition at 1 µg/mL [3]: 13%

Cc1nc2ncnn2c(N)c1-c1ccc(C(C)(C)C)cc1 [Compound I-18, 6-(4-tert-butylphenyl)-5-methyl-[1,2,4]triazolo[1,5-a]pyrimidin-7-ylamine]
pest or weed control at 16 ppm [1]: 11%
inhibition at 0.25 µg/mL [2, 5]: 16%
inhibition at 1 µg/mL [2, 5]: 45%
inhibition at […] [2, 5]: 6%
inhibition at […] [4, 6]: 6%
inhibition at 1 µg/mL [4, 6]: 8%
inhibition at 16 µg/mL ([4]; Botrytis cinerea, Conc. 16 mg/l, read-out: Observed activity (%)): 11%
inhibition at 0.25 µg/mL [3]: 15%
inhibition at 1 µg/mL [3]: 15%
inhibition at 4 µg/mL [3]: 18%
inhibition at 16 µg/mL [3]: 29%

CCCCCCCCc1c(C)nc2ncnn2c1N [Compound I-25, 5-methyl-6-octyl-[1,2,4]triazolo[1,5-a]pyrimidin-7-ylamine]
pest or weed control at 16 ppm [1]: 0%
inhibition at 0.25 µg/mL [2, 5]: 5%
inhibition at 1 µg/mL [2, 5]: 13%
inhibition at […] [2, 5]: 4%
inhibition at 0.25 µg/mL [4, 6]: 5%
inhibition at 1 µg/mL [3]: 24%

Cc1nc2ncnn2c(N)c1CCC(C)CC(C)(C)C (stereo not drawn) [Compound I-28, 5-methyl-6-(3,5,5-trimethylhexyl)-[1,2,4]triazolo[1,5-a]pyrimidin-7-ylamine]
pest or weed control at 63 ppm [1]: 44%
inhibition at 0.016 µg/mL [2, 5]: 0%
inhibition at 0.25 µg/mL [2, 5]: 14%
inhibition at 1 µg/mL [2, 5]: 24%
inhibition at […] [2, 5]: 0%
inhibition at 4 µg/mL [4, 6]: 0%
inhibition at 0.25 µg/mL [3]: 12%
inhibition at 1 µg/mL [3]: 13%

CCCCCCCCc1c(C(F)(F)F)nc2ncnn2c1N [Compound I-98, 6-octyl-5-trifluoromethyl-[1,2,4]triazolo[1,5-a]pyrimidin-7-ylamine]
inhibition at 0.25 µg/mL [2, 5]: 6%
inhibition at 1 µg/mL [2, 5]: 16%
inhibition at 4 µg/mL [2, 5]: 22%
inhibition at […] [2, 5]: 5%
inhibition at 0.25 µg/mL [4, 6]: 4%
inhibition at 1 µg/mL [4, 6]: 5%
inhibition at 0.25 µg/mL [3]: 0%
inhibition at 1 µg/mL [3]: 0%
inhibition at 4 µg/mL [3]: 15%
inhibition at 16 µg/mL [3]: 43%

CC(CCc1c(C(F)(F)F)nc2ncnn2c1N)CC(C)(C)C (stereo not drawn) [Compound I-101, 5-trifluoromethyl-6-(3,5,5-trimethylhexyl)-[1,2,4]triazolo[1,5-a]pyrimidin-7-ylamine]
inhibition at 0.25 µg/mL [2, 5]: 3%
inhibition at 4 µg/mL [2, 5]: 9%
inhibition at 1 µg/mL [4, 6]: 1%
inhibition at 1 µg/mL [3]: 15%
inhibition at 4 µg/mL [3]: 16%
inhibition at 16 µg/mL [3]: 25%

CCc1nc2ncnn2c(N)c1CCC(C)CC(C)(C)C (stereo not drawn) [Compound I-113, 5-ethyl-6-(3,5,5-trimethylhexyl)-[1,2,4]triazolo[1,5-a]pyrimidin-7-ylamine]
pest or weed control at 16 ppm [1]: 22%
inhibition at 0.25 µg/mL [2, 5]: 3%
inhibition at 4 µg/mL [2, 5]: 36%
inhibition at 4 µg/mL [3]: 7%

CCCCCCCCc1nc2ncnn2c(N)c1CC [Compound I-290, 6-ethyl-5-octyl-[1,2,4]triazolo[1,5-a]pyrimidin-7-ylamine]
inhibition at 0.25 µg/mL [2, 5]: 0%
inhibition at 4 µg/mL [2, 5]: 3%
inhibition at […] [2, 5]: 0%
inhibition at 1 µg/mL [4, 6]: 4%

O=S(=O)([O-])[O-].[Cu+2] [CuSO4, reference compound]
Observed activity (%) ([4]; Conc. 63 mg/l): 0%
Observed activity (%) [3]: 0%

CC1CCN(c2c(-c3c(F)cc(F)cc3F)c(Cl)nc3ncnn23)CC1 [[D-8], 5-chloro-7-(4-methylpiperidin-1-yl)-6-(2,4,6-trifluorophenyl)-[1,2,4]triazolo[1,5-a]pyrimidine, reference compound]
inhibition at 1 µg/mL [2, 5]: 43%

CO/C=C(/C(=O)OC)c1ccccc1Oc1cc(Oc2ccccc2C#N)ncn1 [azoxystrobin]
Observed activity (%) [2]: 21%

COC(=O)C(C)N(C(=O)Cc1ccccc1)c1c(C)cccc1C (stereo not drawn) [benalaxyl]
inhibition at 4 µg/mL [2, 5]: 13%

O=C(Nc1ccccc1-c1ccc(Cl)cc1)c1cccnc1Cl [boscalid]
inhibition at 1 µg/mL [2, 5]: 2%
inhibition at 4 µg/mL [2, 5]: 17%
inhibition at 63 µg/mL [3]: 12%

O=C1C2CC=CCC2C(=O)N1SC(Cl)(Cl)Cl (stereo not drawn) [captan, 2-trichloromethylsulfanyl-3a,4,7,7a-tetrahydroisoindole-1,3-dione, reference compound]
inhibition at 1 µg/mL [2, 5]: 12%
inhibition at 1 µg/mL [3]: 44%

COC(=O)Nc1nc2ccccc2[nH]1 [carbendazim]
inhibition at 0.25 µg/mL [3]: 20%

N#Cc1c(Cl)c(Cl)c(Cl)c(C#N)c1Cl [chlorothalonil]
inhibition at 1 µg/mL [4, 6]: 55%

Cc1ccc(-c2c(Cl)nc(C#N)n2S(=O)(=O)N(C)C)cc1 [cyazofamid, 4-chloro-2-cyano-N,N-dimethyl-5-(4-methylphenyl)-1H-imidazole-1-sulfon-amide, reference compound]
pest or weed control at 4 ppm [1]: 33%
inhibition at 4 µg/mL [3]: 23%

CC(C1CC1)C(O)(Cn1cncn1)c1ccc(Cl)cc1 (stereo not drawn) [cyproconazole]
inhibition at 4 µg/mL [2, 5]: 9%
inhibition at 4 µg/mL [3]: 54%

Cc1cc(C2CC2)nc(Nc2ccccc2)n1 [cyprodinil]
inhibition at 4 µg/mL [2, 5]: 10%

CC1COC(Cn2cncn2)(c2ccc(Oc3ccc(Cl)cc3)cc2Cl)O1 (stereo not drawn) [difenoconazole]
inhibition at 4 µg/mL [2, 5]: 24%

CC1CN(C2CCCCCCCCCCC2)CC(C)O1 (stereo not drawn) [dodemorph]
inhibition at 16 µg/mL [3]: 72%

CO/C=C(/C(=O)OC)c1ccccc1CO/N=C(C)/C=C/c1ccc(Cl)cc1 [enestroburin]
Observed activity (%) [2]: 35%

CSC1=N[C@@](C)(c2ccccc2)C(=O)N1Nc1ccccc1 [fenamidone]
inhibition at […] [2, 5]: 40%

O=[N+]([O-])c1cc(C(F)(F)F)c(Cl)c([N+](=O)[O-])c1Nc1ncc(C(F)(F)F)cc1Cl [fluazinam]
inhibition at 0.25 µg/mL [2, 5]: 9%
inhibition at […] [4, 6]: 50%

CC(C)OC(=O)N[C@H](C(=O)N[C@H](C)c1nc2ccc(F)cc2s1)C(C)C [flubenthiavalicarb]
Observed activity (%) [2]: 68%

CO/N=C(/C1=NOCCO1)c1ccccc1Oc1ncnc(Oc2ccccc2Cl)c1F [fluoxastrobin]
inhibition at 0.025 µg/mL [2, 5]: 2%
inhibition at […] [2, 5]: 1%

O=c1c2cc(F)ccc2nc(-n2cncn2)n1-c1ccc(Cl)cc1Cl [fluquinconazole, 3-(2,4-dichlorophenyl)-6-fluoro-2-[1,2,4]-triazol-1-yl-3H-quinazolin-4-one, reference compound]
inhibition at 1 µg/mL [2, 5]: 0%
inhibition at 4 µg/mL [2, 5]: 0%
inhibition at […] [4, 6]: 22%
inhibition at 4 µg/mL [3]: 0%

C[Si](Cn1cncn1)(c1ccc(F)cc1)c1ccc(F)cc1 [flusilazole]
inhibition at 1 µg/mL [2, 5]: 0%
inhibition at 4 µg/mL [2, 5]: 11%
inhibition at 0.25 µg/mL [4, 6]: 43%

O=C1c2ccccc2C(=O)N1SC(Cl)(Cl)Cl [folpet]
inhibition at 1 µg/mL [2, 5]: 6%
inhibition at 1 µg/mL [4, 6]: 2%

CC(C)NC(=O)N1CC(=O)N(c2cc(Cl)cc(Cl)c2)C1=O [iprodione, N-isopropyl-3-(3,5-dichlorophenyl)-2,4-dioxoimidazolidine-1-carboxamide, reference compound]
inhibition at 4 µg/mL [3]: 46%

COc1cc(C)c(C(=O)c2c(OC)ccc(Br)c2C)c(OC)c1OC [metrafenone, 3′-bromo-2,3,4,6′-tetramethoxy-2′,6-dimethylbenzophenone, reference compound]
inhibition at 4 µg/mL [2, 5]: 2%
inhibition at 63 µg/mL [3]: 42%

Cc1cccc(C)c1N(C(=O)CCl)C1CCOC1=O (stereo not drawn) [ofurace]
inhibition at 4 µg/mL [2, 5]: 0%
inhibition at 16 µg/mL [2, 5]: 19%

COCC(=O)N(c1c(C)cccc1C)N1CCOC1=O [oxadixyl]
inhibition at 1 µg/mL [2, 5]: 0%
inhibition at 4 µg/mL [2, 5]: 2%
inhibition at 16 µg/mL [2, 5]: 17%

CCCN(CCOc1c(Cl)cc(Cl)cc1Cl)C(=O)n1ccnc1 [prochloraz]
inhibition at 16 µg/mL [2, 5]: 6%

CCCC1COC(Cn2cncn2)(c2ccc(Cl)cc2Cl)O1 (stereo not drawn) [propiconazole]
inhibition at 1 µg/mL [2, 5]: 1%
inhibition at 4 µg/mL [2, 5]: 11%
inhibition at 16 µg/mL [2, 5]: 12%

OC(Cc1ccccc1Cl)(Cn1nc[nH]c1=S)C1(Cl)CC1 (stereo not drawn) [prothioconazole, 2-[2-(1-chlorocyclopropyl)-3-(2-chlorophenyl)-2-hydroxypropyl]-2,4-dihydro-[1,2,4]triazole-3-thione, reference compound]
inhibition at 4 µg/mL [4, 6]: 48%
inhibition at 4 µg/mL [3]: 11%

COC(=O)N(OC)c1ccccc1COc1ccn(-c2ccc(Cl)cc2)n1 [pyraclostrobin]
inhibition at 0.016 µg/mL [2, 5]: 14%
inhibition at […] [2, 5]: 59%

CC(C)(C)C(O)(CCc1ccc(Cl)cc1)Cn1cncn1 (stereo not drawn) [tebuconazole]
inhibition at 1 µg/mL [2, 5]: 8%
inhibition at 4 µg/mL [2, 5]: 10%
inhibition at 16 µg/mL [2, 5]: 9%
inhibition at 0.25 µg/mL [4, 6]: 50%

COC(=O)NC(=S)Nc1ccccc1NC(=S)NC(=O)OC [thiophanate-methyl]
inhibition at 0.25 µg/mL [4, 6]: 12%

CON=C(C(=O)OC)c1ccccc1CON=C(C)c1cccc(C(F)(F)F)c1 [trifloxystrobin]
inhibition at 0.25 µg/mL [2, 5]: 33%
inhibition at 1 µg/mL [2, 5]: 46%

C=CC1(C)OC(=O)N(c2cc(Cl)cc(Cl)c2)C1=O (stereo not drawn) [vinclozolin]
inhibition at 16 µg/mL [2, 5]: 0%
inhibition at 1 µg/mL [4, 6]: 21%

maneb
Observed activity (%) [2]: 6%
Observed activity (%) [3]: 32%

zinc ammoniate ethylenebis(dithiocarbamate) [metiram, reference compound]
Observed activity (%) [3]: 26%
